From PMC8451722, “Staphylococcus aureus Depends on Eap Proteins for Preventing Degradation of Its Phenol-Soluble Modulin Toxins by Neutrophil Serine Proteases” (Frontiers in Immunology, 2021)

Legend:
human FPR2/ALX = target: T1, human FPR2/ALX (Homo sapiens, UniProt P25090); assay: Calcium mobilization in HL60 FPR2 cells; assay type: cell-based; conditions: calcium flux
T1 construct: expressed in transfected cells; host or cells: HL60
T1 sequence (P25090 1-351): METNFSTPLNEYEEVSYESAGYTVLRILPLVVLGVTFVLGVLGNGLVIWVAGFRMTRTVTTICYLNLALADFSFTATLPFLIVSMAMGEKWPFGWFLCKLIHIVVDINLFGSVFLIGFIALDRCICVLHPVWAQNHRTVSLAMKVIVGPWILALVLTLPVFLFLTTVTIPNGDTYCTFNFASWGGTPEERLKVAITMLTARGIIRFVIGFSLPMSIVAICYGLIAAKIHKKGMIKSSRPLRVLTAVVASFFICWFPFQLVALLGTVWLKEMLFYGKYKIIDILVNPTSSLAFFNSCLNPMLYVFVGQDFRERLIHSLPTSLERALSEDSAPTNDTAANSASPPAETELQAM
Method: Culture filtrates of different bacterial strains (USA300, USA300ΔeapΔeapHIΔeapHII::ermB, S. epidermidis RN1457) were incubated with different amounts of neutrophils to investigate the potential of neutrophils to inactivate their PSM activity. Therefore, 100µl of sterile filtered overnight culture were incubated with 100µl neutrophils in RPMI at the indicated concentrations for six or 24 hours as described in the figure legends. After centrifugation, supernatants were collected and frozen at -20° until they were further analyzed for their FPR2 activity, for truncated PSM fragments and their cytotoxicity.
HL60 cells stably transfected with human FPR2/ALX (HL60-FPR2) have been described recently ([23]). These cells were grown in RPMI medium (Biochrom) supplemented with 10% FCS (Sigma-Aldrich), 20 mM Hepes (Biochrom), penicillin (100 units/ml), streptomycin (100 µg/ml) (Gibco), 1 × Glutamax (Gibco) and in the presence of G418 (Biochrom) at a final concentration of 1 mg/ml. […] Calcium fluxes were analyzed by stimulating cells loaded with Fluo-3-AM (Molecular Probes) and monitoring fluorescence with a FACSCalibur or a FACS Fortessa flow cytometer (BD Biosciences) as described recently ([23]).

human neutrophils = assay: CD11b expression on neutrophils; assay type: cell-based; conditions: USA300 culture filtrate 0,36% in RPMI, treated 24 hours with neutrophils +/- PMSF; neutrophils stimulated 60 min 37°C; flow cytometry
Method: Sterile filtered culture filtrates of S. aureus USA300 (0,36% in RPMI) or TSB were incubated for 24 hours either with or without addition of the NSP inhibitor PMSF and neutrophils. Activation of human neutrophils was determined by measuring surface expression of CD11b. Neutrophils were incubated with the treated culture filtrates at 37°C with rotation for 60 min as described elsewhere ([24]). Cells were stained with a PE-labeled antibody against CD11b (mAb 44; BD Biosciences) or isotype control antibody (BD Biosciences) as described previously. Then, neutrophils were analyzed on a FACS Fortessa cytometer (BD Biosciences)

[1] = target: T2, human neutrophil elastase (Homo sapiens, UniProt P08246); assay: Prevention of NSP-mediated PSMα3 degradation by NSP inhibitors (western blot); assay type: biochemical; conditions: 100µM PMSF, one hour at 37°C, text: pre-incubation of neutrophils, Supplementary Figure 1: digestion with NE
T2 construct: purchased PanReac AppliChem
T2 sequence (P08246 30-267): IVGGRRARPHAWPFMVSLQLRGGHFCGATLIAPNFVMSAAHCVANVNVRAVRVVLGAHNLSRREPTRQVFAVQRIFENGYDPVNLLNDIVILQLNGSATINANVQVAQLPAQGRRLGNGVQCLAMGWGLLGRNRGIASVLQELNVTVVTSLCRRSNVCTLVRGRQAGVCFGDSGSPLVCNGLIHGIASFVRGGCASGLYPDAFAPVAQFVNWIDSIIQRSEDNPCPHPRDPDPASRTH
Method: (§1) PSMα3 (1,3µg) was digested either with 0,15 unit’s NE, CG or PR3 for one hour at 37°C with or without addition of PMSF (100µM) or 2µg Eap, 4µgEapH1 or 4µg EapH2. For digestion of PSMα3 by neutrophils, 25µl PSMα3 (20µM) was incubated for one hour with or without 5x10^6 neutrophils in 100µl RPMI at 37°C, 5% CO2. After centrifugation 10µl of the supernatant was used for western Blot analysis. After denaturation of the samples for two minutes at 85°C and addition of Tricine Sample Buffer, samples were subjected to a 10-20%- Tricine SDS gradient gel (Thermo Fischer Scientific). Then, proteins were blotted to a nitrocellulose membrane and blocked overnight using blocking buffer. After washing PSM α3 was visualized using rabbit anti-PSMα3 serum (kindly provided by Michael Otto) at a concentration of 1:10000 (for one hour, 4°C, under agitation). After washing with wash buffer (Tris buffered saline, BioRad +0,05% Tween, Merck), the secondary antibody goat anti rabbit IgG (Dylight 800 conjugate (LI-COR #2557) was added (diluted 1:10000 in blocking buffer) and incubated for one hour at 4°C. Protein bands were detected with the Licor Odyssey CLx.

[2] = target: T2, human neutrophil elastase; assay: Degradation of PSMα3 by NE (western blot); assay type: in vitro ADME; conditions: PSMα3 1,3µg, 0,15 units NE, one hour at 37°C, three independent experiments
Method: (§2) The three different human serine proteases human NE, PR3, 0.01 U and CG, 0.01 U were investigated and their potential to inactivate PSMα3 was compared. […] 28 ng/ml NE (stock: 1.4 mg/ml) were incubated for one hour at 37°C in RPMI plus 0.05% HSA to inactivate 500 nM PSMα3 in a total volume of 120 μl (0.012 μl NE in 60 μl RPMI). To avoid further degradation of PSMα3, all stimulations were prepared freshly and analyzed in different assays on the same day.
as §1, with “Then, proteins were blotted to a nitrocellulose membrane and blocked overnight using blocking buffer. After washing PSM α3 was visualized using rabbit anti-PSMα3 serum (kindly provided by Michael Otto) at a concentration of 1:10000 (for one hour, 4°C, under agitation).” left out

HL60 cells = assay: Cytotoxicity assay (LDH release), HL60 cells; assay type: cell-based, human; conditions: three independent experiments
Method: 100 μl of synthetic PSMs, protease degraded PSMs or filtered bacterial culture supernatants were added to wells of a 96-well round bottom culture plate containing 10^5 neutrophils in 100 μl and plates were incubated at 37°C for up to 3 h. At the desired times, the stimulation was stopped by centrifugation for 10 minutes at 300 x g at RT, and cell lysis was determined by measuring the release of lactate dehydrogenase (LDH) using the Cytotoxicity Detection Kit (Roche Applied Sciences), according to the manufacturer’s instructions. As control, 100 μl TSB was diluted in RPMI without phenol red, mixed with human neutrophils (10^6) and tested for its ability to cause cell lysis. As control, lysis of HL60 cells was tested in pure RPMI/TSB without phenol red.

[3] = target: T3, human neutrophil cathepsin G (Homo sapiens, UniProt P08311); assay: Degradation of PSMα3 by CG (western blot); assay type: in vitro ADME; conditions: PSMα3 1,3µg, 0,15 units CG, one hour at 37°C, three independent experiments
T3 construct: purchased MyBioSource
T3 sequence (P08311 21-255): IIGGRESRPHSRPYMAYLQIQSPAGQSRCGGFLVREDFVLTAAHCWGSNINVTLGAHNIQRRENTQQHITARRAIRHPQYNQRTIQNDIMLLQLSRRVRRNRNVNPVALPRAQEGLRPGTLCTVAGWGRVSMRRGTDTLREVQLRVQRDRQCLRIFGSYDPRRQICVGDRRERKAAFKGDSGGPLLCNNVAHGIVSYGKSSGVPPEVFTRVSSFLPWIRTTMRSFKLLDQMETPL
Method: as §2
as §1, with “Then, proteins were blotted to a nitrocellulose membrane and blocked overnight using blocking buffer. After washing PSM α3 was visualized using rabbit anti-PSMα3 serum (kindly provided by Michael Otto) at a concentration of 1:10000 (for one hour, 4°C, under agitation).” left out

[4] = target: T4, human neutrophil proteinase 3 (Homo sapiens, UniProt P24158); assay: Degradation of PSMα3 by PR3 (western blot); assay type: in vitro ADME; conditions: PSMα3 1,3µg, 0,15 units PR3, one hour at 37°C, three independent experiments
T4 construct: purchased MyBioSource
T4 sequence (P24158 28-256): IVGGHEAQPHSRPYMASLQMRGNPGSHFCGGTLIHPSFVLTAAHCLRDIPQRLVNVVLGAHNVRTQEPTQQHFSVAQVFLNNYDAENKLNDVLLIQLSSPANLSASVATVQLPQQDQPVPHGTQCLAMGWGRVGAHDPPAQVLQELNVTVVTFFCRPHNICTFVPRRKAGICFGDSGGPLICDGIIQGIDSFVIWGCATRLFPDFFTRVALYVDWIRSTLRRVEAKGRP
Method: as §2
as §1, with “Then, proteins were blotted to a nitrocellulose membrane and blocked overnight using blocking buffer. After washing PSM α3 was visualized using rabbit anti-PSMα3 serum (kindly provided by Michael Otto) at a concentration of 1:10000 (for one hour, 4°C, under agitation).” left out

SMILES | PSM-mediated FPR2 activation by culture filtrates of PSM producing S. aureus in the simultaneous presence of neutrophils and inhibitor (human FPR2/ALX; HL60-FPR2 cells) | PSMα3-mediated activation of FPR2 in HL60-FPR2 cells after neutrophil treatment with PMSF pre-incubation (human FPR2/ALX; three independent experiments) | CD11b surface expression on neutrophils incubated with culture filtrates of a PSM-producing S. aureus strain in the presence of inhibitor (human neutrophils) | effect of NSP inhibitor PMSF on degradation of PSMα3 [1] | degradation of PSMα3 upon incubation with NE [2] | cytotoxicity of PSMα3 toward HL60 cells after treatment with NE, CG and PR3 (HL60 cells) | degradation of PSMα3 upon incubation with CG [3] | degradation of PSMα3 upon incubation with PR3 [4]
O=S(=O)(F)Cc1ccccc1 [PMSF, Phenylmethylsulfonyl fluoride] | rescued PSM-mediated FPR2 activation | maintained the activation of FPR2 | upregulation of CD11b | prevents degradation of PSMα3 | – | – | – | –
CSCC[C@H](NC=O)C(=O)N[C@@H](CCC(=O)O)C(=O)N[C@@H](Cc1ccccc1)C(=O)N[C@H](C(=O)N[C@@H](C)C(=O)N[C@@H](CCCCN)C(=O)N[C@@H](CC(C)C)C(=O)N[C@@H](Cc1ccccc1)C(=O)N[C@@H](CCCCN)C(=O)N[C@@H](Cc1ccccc1)C(=O)N[C@@H](Cc1ccccc1)C(=O)N[C@@H](CCCCN)C(=O)N[C@@H](CC(=O)O)C(=O)N[C@@H](CC(C)C)C(=O)N[C@@H](CC(C)C)C(=O)NCC(=O)N[C@@H](CCCCN)C(=O)N[C@@H](Cc1ccccc1)C(=O)N[C@@H](CC(C)C)C(=O)NCC(=O)N[C@@H](CC(N)=O)C(=O)N[C@@H](CC(N)=O)C(=O)O)C(C)C [PSMα3] | – | – | – | – | readily degraded | abolished | readily degraded | readily degraded
